Each block holds one compound with its values, some of them ahead of it. Calls of active or inactive are those of the source.
Legend:
Hexokinase-1 = Hexokinase-1 (Homo sapiens, UniProt P19367); test: SAR analysis of small molecule inhibitors of hexokinase domain containing I (HKDC1) in the hexokinase 1 selectivity assay. [Related pubchem assays (depositor defined):AID493160, AID493190]; type: functional
Hexokinase HKDC1 = molecular target: T1, Hexokinase HKDC1 (Homo sapiens, UniProt Q2TB90); test: SAR analysis of small molecule inhibitors of hexokinase domain containing I (HKDC1). [Related pubchem assays (depositor defined):AID493160, AID493190]; type: functional
T1 sequence (Q2TB90 whole entry): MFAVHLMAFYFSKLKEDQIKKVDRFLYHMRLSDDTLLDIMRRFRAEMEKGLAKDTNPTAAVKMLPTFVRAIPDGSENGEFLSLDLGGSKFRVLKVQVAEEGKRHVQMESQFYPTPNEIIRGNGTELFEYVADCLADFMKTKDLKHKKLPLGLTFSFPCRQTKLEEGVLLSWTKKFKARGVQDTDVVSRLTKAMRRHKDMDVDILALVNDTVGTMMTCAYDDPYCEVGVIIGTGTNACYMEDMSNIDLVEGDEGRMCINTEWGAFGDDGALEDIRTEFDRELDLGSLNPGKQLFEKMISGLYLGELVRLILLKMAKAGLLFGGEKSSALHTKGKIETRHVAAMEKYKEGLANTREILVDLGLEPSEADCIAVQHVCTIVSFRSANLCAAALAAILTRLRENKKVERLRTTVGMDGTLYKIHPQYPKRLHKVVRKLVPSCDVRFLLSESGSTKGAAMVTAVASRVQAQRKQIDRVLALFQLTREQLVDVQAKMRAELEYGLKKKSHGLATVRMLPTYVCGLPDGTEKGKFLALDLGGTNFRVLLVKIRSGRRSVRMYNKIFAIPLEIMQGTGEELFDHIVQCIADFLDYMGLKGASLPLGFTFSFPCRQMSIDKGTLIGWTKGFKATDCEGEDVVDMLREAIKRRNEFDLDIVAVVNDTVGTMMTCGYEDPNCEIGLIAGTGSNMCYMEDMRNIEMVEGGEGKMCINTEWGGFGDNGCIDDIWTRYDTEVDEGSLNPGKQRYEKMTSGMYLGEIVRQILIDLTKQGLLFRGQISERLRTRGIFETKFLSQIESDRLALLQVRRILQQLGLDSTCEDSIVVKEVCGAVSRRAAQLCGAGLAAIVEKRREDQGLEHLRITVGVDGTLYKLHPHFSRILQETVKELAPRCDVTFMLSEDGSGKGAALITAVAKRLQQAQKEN

[1] = molecular target: T2, Rac GTPase-activating protein 1 (Homo sapiens, UniProt Q9H0H5); test: blockers of MgcRacGAP-driven Rac1 GTP hydrolysis – biochemical, ADP Hunter fluorescence, primary and confirmatory, confirmation (AID 624330); type: functional
T2 sequence (Q9H0H5 whole entry): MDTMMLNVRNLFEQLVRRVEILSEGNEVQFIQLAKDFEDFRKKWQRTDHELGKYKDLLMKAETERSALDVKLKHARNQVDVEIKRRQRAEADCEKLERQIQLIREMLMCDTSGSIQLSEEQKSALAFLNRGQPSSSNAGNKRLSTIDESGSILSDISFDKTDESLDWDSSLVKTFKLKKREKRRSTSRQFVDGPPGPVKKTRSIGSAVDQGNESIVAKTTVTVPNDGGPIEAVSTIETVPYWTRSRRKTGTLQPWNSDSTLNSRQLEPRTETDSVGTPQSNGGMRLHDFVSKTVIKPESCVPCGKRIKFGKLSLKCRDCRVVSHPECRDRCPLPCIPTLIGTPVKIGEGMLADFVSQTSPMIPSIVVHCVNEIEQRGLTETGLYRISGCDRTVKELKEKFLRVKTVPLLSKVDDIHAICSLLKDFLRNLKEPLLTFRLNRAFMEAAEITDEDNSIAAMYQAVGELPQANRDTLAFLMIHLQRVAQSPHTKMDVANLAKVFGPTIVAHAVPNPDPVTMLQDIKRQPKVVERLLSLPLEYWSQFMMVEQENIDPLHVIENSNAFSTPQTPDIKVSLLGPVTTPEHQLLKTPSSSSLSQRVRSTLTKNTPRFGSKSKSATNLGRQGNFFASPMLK

[2] = molecular target: Induced myeloid leukemia cell differentiation protein Mcl-1 (Homo sapiens, UniProt Q07820); type: functional
Chain of Induced myeloid leukemia cell differentiation protein Mcl-1 (Q07820 whole entry): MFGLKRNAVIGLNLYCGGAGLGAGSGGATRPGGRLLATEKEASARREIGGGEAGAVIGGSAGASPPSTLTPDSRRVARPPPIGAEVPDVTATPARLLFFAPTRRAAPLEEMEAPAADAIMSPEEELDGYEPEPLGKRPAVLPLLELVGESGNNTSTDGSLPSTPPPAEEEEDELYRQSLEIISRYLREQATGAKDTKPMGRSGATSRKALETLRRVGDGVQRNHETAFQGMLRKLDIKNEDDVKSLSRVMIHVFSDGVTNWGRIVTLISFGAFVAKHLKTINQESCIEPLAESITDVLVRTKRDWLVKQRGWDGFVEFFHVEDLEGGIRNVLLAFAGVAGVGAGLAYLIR

[3] = molecular target: T3, Heat shock 70 kDa protein 1A (Homo sapiens, UniProt P0DMV8); test: small molecules displacing fluorescent ligand from Hsp70 – biochemical, fluorescence polarization, primary screen (AID 583)
T3 sequence (P0DMV8 whole entry): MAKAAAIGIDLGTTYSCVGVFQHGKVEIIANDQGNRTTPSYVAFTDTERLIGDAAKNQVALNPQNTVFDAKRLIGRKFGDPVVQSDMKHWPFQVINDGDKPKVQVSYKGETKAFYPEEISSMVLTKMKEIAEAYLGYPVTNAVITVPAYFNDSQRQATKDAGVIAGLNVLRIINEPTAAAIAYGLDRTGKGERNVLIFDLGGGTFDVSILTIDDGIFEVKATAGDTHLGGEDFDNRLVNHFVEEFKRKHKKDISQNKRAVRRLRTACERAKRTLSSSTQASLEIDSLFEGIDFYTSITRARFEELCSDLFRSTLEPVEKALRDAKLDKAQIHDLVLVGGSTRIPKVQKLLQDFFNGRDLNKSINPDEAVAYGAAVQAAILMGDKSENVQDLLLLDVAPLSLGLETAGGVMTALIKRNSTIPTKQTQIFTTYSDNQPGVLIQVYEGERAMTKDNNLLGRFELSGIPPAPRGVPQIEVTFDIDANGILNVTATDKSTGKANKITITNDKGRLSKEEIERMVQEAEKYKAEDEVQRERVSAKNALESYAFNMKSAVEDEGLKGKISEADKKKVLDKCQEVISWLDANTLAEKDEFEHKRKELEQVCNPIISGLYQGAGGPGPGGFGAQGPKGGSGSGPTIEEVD

[4] = molecular target: DNA (cytosine-5)-methyltransferase 1 (Homo sapiens, UniProt P26358); test: inhibition of DNA methylation by DNMT1 – biochemical, fluorescent molecular beacon, confirmation (AID 602386); type: functional
Chain of DNA (cytosine-5)-methyltransferase 1 (P26358 whole entry): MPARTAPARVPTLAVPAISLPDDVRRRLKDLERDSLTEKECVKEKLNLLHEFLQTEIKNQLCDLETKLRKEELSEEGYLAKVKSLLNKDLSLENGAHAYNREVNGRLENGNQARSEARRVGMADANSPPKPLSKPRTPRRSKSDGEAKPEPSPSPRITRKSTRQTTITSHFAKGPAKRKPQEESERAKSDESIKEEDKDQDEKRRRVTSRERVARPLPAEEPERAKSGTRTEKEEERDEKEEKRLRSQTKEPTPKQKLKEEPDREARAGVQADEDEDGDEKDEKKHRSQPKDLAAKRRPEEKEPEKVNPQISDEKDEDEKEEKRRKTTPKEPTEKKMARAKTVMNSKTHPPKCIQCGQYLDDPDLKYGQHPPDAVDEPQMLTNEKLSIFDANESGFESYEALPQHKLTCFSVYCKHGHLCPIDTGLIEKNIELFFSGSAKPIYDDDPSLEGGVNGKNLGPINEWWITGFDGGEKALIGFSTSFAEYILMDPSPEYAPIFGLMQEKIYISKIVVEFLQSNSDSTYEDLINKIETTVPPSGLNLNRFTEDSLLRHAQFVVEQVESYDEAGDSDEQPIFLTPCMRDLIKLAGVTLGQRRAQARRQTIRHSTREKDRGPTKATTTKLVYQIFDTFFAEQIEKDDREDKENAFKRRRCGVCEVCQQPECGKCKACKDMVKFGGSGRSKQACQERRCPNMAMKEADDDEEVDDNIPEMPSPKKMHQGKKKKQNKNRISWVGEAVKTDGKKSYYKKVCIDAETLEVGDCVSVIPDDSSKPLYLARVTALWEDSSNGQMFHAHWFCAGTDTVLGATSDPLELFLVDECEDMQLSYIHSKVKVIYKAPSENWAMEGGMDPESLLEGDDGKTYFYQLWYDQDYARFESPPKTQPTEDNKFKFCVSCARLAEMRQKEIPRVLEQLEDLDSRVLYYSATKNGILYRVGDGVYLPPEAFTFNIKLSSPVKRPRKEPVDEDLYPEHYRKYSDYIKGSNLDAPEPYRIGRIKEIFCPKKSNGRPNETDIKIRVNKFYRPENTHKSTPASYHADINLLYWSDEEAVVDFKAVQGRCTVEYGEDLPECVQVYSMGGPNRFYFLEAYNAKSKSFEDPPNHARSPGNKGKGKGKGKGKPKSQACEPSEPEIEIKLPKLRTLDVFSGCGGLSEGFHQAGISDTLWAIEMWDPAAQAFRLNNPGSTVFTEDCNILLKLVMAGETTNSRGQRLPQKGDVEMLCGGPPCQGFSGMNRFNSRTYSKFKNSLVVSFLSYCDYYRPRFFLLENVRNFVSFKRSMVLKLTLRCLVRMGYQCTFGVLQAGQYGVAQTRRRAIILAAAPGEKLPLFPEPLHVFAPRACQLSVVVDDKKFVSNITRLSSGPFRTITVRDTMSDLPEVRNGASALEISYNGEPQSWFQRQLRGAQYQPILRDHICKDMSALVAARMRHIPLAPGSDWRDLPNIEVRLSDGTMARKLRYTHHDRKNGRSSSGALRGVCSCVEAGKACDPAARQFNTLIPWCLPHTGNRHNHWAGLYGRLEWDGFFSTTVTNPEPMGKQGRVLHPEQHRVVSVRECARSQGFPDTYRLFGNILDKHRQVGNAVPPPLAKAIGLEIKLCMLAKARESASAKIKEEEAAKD

[5] = viability loss in THP-1 monocytes – THP-1 cells, cytotoxicity control for Vif-APOBEC3G degradation inhibitor project, dose response (AID 1117359); type: functional; conditions: THP-1
[6] = molecular target: T4, RNA-binding protein pos-1 (Caenorhabditis elegans, UniProt G5EF15); test: disruptors of C. elegans POS-1 RNA interaction – biochemical, fluorescence polarization, dose response (AID 1964);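 further: purified POS-1 fused to maltose binding protein made in E. coli; potency of compounds blocking POS-1 binding to fluorescent RNA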
T4 sequence (G5EF15 whole entry): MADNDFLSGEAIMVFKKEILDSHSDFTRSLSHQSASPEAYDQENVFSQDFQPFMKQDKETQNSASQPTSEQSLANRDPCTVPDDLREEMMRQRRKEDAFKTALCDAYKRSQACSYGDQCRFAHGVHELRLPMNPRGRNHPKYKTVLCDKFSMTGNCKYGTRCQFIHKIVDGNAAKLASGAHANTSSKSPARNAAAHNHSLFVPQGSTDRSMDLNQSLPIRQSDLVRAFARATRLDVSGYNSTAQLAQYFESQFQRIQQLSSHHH

ORF 73 = ORF 73 (Human herpesvirus 8, UniProt O40947); test: KSHV LANA DNA-binding disruption – biochemical, fluorescence polarization, cherry-picked samples, dose response (AID 504725); set-up: species or system Human gammaherpesvirus 8;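 further: fluorescence polarization of a labeled DNA duplex reporting LANA DNA binding; potency is for inhibitors that block LANA binding to the DNA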
Chain of ORF 73 (O40947 whole entry): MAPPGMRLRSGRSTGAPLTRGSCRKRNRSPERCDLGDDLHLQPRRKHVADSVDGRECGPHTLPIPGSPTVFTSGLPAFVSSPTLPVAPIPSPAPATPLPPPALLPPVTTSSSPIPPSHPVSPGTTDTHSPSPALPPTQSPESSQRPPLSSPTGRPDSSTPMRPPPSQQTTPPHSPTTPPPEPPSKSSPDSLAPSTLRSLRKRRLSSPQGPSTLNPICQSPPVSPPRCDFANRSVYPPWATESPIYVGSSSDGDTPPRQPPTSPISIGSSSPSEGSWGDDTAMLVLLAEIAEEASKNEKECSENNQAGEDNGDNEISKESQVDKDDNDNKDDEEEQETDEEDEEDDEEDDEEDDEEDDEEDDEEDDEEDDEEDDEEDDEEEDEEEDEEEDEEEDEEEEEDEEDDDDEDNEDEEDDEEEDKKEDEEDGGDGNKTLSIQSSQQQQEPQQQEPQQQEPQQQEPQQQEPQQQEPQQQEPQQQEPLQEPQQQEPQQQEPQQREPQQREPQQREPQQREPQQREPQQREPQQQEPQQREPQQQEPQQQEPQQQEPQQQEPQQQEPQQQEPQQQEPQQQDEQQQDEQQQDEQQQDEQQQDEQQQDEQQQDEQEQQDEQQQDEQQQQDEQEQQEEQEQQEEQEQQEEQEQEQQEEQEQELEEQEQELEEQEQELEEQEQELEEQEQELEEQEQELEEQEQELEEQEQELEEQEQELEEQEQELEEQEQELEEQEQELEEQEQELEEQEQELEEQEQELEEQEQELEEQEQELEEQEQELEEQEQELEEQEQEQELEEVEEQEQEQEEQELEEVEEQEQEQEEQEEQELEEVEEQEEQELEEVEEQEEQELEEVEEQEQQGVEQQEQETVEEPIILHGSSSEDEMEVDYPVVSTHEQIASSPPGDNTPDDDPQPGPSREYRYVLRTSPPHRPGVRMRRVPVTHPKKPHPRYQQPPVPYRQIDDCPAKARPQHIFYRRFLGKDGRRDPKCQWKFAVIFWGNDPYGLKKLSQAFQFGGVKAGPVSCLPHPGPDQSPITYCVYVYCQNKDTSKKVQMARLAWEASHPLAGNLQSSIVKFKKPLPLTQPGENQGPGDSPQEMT

[7] = molecular target: Beta-adrenergic receptor kinase 1 (Homo sapiens, UniProt P25098); test: aptamer displacement from bead-bound GRK2 – biochemical, cherry pick 1, bead flow cytometry, dose response (AID 504500)
[8] = molecular target: T5, Histone-lysine N-methyltransferase NSD2 (Homo sapiens, UniProt O96028); type: biochemical
T5 sequence (O96028 whole entry): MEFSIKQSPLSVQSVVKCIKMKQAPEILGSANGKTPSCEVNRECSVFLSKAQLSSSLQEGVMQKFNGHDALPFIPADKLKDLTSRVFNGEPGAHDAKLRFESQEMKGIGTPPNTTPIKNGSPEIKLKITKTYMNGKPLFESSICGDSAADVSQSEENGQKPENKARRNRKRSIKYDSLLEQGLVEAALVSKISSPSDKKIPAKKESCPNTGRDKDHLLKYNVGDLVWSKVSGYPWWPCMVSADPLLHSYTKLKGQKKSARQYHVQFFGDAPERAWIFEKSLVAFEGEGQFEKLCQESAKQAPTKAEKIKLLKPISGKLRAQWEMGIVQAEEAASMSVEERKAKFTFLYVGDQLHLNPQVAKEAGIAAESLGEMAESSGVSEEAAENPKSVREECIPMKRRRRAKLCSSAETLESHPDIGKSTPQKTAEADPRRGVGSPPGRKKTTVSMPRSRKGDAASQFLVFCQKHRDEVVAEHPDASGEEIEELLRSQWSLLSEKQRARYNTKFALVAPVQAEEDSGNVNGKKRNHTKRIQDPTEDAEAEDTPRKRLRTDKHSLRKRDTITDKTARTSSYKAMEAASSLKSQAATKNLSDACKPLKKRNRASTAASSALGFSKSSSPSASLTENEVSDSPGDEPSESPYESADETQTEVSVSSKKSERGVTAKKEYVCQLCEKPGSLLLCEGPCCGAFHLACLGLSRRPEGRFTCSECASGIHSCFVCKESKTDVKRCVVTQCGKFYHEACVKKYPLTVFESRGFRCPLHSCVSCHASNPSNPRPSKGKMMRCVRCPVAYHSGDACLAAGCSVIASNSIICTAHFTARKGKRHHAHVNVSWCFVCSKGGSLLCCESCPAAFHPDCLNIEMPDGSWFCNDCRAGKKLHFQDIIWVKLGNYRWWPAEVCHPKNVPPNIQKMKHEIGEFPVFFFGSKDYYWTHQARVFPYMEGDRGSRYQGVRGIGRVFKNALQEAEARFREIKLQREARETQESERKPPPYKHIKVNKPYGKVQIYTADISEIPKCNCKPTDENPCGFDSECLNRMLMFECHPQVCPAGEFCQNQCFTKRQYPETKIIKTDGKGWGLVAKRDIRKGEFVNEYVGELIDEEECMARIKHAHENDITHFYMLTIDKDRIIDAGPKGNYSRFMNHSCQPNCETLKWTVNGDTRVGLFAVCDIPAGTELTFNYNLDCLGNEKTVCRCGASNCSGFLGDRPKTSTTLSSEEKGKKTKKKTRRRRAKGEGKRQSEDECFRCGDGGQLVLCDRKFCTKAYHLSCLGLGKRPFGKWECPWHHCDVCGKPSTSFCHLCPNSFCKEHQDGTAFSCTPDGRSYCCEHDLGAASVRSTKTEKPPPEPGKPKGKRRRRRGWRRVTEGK

[9] = molecular target: T6, Zinc finger protein mex-5 (Caenorhabditis elegans, UniProt Q9XUB2); test: potency of MEX-5 RNA-binding blockers – biochemical, C. elegans, fluorescence polarization, dose response (AID 1960)
T6 sequence (Q9XUB2 whole entry): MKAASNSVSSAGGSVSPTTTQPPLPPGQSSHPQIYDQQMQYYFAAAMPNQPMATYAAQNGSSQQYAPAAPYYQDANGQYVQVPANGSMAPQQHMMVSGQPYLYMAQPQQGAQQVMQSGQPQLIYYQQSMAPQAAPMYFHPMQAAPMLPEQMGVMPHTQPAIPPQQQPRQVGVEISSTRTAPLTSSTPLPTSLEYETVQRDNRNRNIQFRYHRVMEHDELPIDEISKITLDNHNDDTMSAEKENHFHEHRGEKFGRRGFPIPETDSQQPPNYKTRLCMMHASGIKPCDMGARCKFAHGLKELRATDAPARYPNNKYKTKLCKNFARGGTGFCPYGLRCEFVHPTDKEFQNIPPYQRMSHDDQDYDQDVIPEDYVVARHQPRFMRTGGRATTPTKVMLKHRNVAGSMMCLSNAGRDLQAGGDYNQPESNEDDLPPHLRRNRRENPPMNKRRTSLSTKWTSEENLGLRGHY

[10] = molecular target: T3, Heat shock 70 kDa protein 1A; test: small-molecule inhibition of Hsp70 – biochemical, TR-FRET (AID 786)
Large T antigen = Large T antigen (Simian virus 40, UniProt P03070); type: functional, Betapolyomavirus macacae;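 further: Confirmatory-stage PubChem screen for compounds that inhibit SV40 T antigen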
Troponin, cardiac muscle = Troponin, cardiac muscle (Homo sapiens, UniProt P19429+P45379+P63316); test: compounds desensitizing RTF to calcium – biochemical, fluorescence, cardiac regulated thin filaments, triplicate IC50, dose response (AID 504742); type: protein-complex assay
[11] = molecular target: Beta-2 adrenergic receptor (Homo sapiens, UniProt P07550); test: ADRB2 activation measured by internalization – cell-based, FAP fluorogen, flow cytometry, cherry pick 1, dose response (AID 588763); type: functional
Chain of Beta-2 adrenergic receptor (P07550 whole entry): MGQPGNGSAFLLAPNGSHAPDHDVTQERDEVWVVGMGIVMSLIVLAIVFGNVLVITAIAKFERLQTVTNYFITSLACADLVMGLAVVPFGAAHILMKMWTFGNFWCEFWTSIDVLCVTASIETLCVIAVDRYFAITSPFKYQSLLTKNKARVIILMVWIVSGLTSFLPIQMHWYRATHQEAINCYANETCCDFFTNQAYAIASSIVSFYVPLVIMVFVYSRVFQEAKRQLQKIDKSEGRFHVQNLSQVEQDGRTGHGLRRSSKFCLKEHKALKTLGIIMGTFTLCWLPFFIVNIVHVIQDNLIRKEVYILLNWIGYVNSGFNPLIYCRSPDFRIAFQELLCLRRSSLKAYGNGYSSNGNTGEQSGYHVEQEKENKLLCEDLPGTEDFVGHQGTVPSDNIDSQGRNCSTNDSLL

Chain of Hexokinase-1 (P19367 whole entry, the tested form may be a part): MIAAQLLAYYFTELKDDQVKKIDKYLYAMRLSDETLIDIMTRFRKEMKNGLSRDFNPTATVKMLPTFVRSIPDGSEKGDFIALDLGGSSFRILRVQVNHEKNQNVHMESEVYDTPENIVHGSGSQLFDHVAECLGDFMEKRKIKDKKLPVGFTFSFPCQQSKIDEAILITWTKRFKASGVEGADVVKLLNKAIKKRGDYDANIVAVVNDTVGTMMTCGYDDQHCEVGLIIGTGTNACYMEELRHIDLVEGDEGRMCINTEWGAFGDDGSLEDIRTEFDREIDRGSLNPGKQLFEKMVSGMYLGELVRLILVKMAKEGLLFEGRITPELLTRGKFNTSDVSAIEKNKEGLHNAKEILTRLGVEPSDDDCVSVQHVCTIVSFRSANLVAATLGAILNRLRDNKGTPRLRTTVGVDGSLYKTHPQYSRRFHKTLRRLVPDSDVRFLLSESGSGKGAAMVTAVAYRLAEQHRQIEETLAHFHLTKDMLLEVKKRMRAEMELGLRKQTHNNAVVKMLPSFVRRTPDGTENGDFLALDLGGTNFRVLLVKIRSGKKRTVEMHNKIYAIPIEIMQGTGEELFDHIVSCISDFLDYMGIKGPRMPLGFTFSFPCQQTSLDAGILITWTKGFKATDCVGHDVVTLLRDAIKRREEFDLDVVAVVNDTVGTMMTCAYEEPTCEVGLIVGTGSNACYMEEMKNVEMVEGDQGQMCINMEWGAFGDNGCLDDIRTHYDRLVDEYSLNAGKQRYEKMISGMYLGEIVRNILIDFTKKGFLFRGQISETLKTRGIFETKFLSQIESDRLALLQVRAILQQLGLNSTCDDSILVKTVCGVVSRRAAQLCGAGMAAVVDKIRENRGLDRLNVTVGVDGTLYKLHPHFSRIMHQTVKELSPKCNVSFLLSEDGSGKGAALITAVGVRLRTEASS

Compound: O=c1c2ccccc2nc(/C=C/c2cccnc2)n1-c1ccccc1
- IC50 (Hexokinase-1): > 80 µM (inactive)
- IC50 (Hexokinase HKDC1): > 80 µM (inactive)

- IC50 [1]: 66.7 µM (active)
- IC50 [2]: 4.73 µM (active)
- IC50 [3]: 21.7 µM (active)
- IC50 [4]: 1.18 µM (active)
- EC50 [6]: 19.9 µM (active)
- AC50 (ORF 73): 18 µM (active)
- EC50 [7]: 14.8 µM (inactive)
- AC50 [8]: 2.19 µM (active)
- EC50 [9]: 23.7 µM (inconclusive)
- IC50 [10]: 17.4 µM (active)
- IC50 (Large T antigen): 27.6 µM (active)
Compound: CC1=NN(c2cccc(C(=O)O)c2)C(=O)/C1=C\C=C\c1ccco1
- CC50 [5]: > 40 µM (active)
- IC50 (Troponin, cardiac muscle): 15 µM (inactive)

- EC50 [11]: 1.04 µM (active)
Compound: CCOC(=O)N1CCN(c2nnc(-c3ccc(C)cc3)c3ccccc23)CC1

Reference: ChEMBL document CHEMBL1201862, “PubChem BioAssay data set” (2004)
